From the NIST ThermoML archive (doi:10.1016/j.jct.2015.08.014)
Numbers after ± are expanded uncertainties.

Assays:
[1] = 101.33 kPa, Liquid; for viscosity: Capillary tube (Ostwald / Ubbelohde) method; for mass density: Vibrating tube method
[2] = xn = mol fraction of the nth substance listed; details: 100 kPa, Liquid, x2 = 0; for viscosity: Capillary tube (Ostwald / Ubbelohde) method; for mass density: Vibrating tube method

**Q.** What does the source list for `O=C1CCCO1` [γ-butyrolactone]?
**A.** viscosity ([1]; 273.15 K): 2.69 ± 0.06 mPa·s; mass density ([1]; 273.15 K): 1149.15 ± 9.2 kg/m3; viscosity ([1]; 278.15 K): 2.43 ± 0.05 mPa·s; mass density ([1]; 278.15 K): 1144.23 ± 9.2 kg/m3; viscosity ([1]; 283.15 K): 2.21 ± 0.05 mPa·s; mass density ([1]; 283.15 K): 1139.31 ± 9.1 kg/m3; viscosity ([1]; 288.15 K): 2.02 ± 0.04 mPa·s; mass density ([1]; 288.15 K): 1134.4 ± 9.1 kg/m3; viscosity ([1]; 293.15 K): 1.86 ± 0.04 mPa·s; mass density ([1]; 293.15 K): 1129.49 ± 9 kg/m3; viscosity ([1]; 298.15 K): 1.71 ± 0.04 mPa·s; mass density ([1]; 298.15 K): 1124.59 ± 9 kg/m3; viscosity ([1]; 303.15 K): 1.58 ± 0.03 mPa·s; mass density ([1]; 303.15 K): 1119.68 ± 9 kg/m3; viscosity ([1]; 308.15 K): 1.47 ± 0.03 mPa·s; mass density ([1]; 308.15 K): 1114.78 ± 8.9 kg/m3; viscosity ([1]; 313.15 K): 1.37 ± 0.03 mPa·s; mass density ([1]; 313.15 K): 1109.87 ± 8.9 kg/m3; viscosity ([1]; 318.15 K): 1.28 ± 0.03 mPa·s; mass density ([1]; 318.15 K): 1104.96 ± 8.8 kg/m3; viscosity ([1]; 323.15 K): 1.2 ± 0.03 mPa·s; mass density ([1]; 323.15 K): 1100.05 ± 8.8 kg/m3; mass density ([1]; 328.15 K): 1095.14 ± 8.8 kg/m3; mass density ([1]; 333.15 K): 1090.22 ± 8.7 kg/m3

**Q.** Which viscosity ([2]; 273.15 K) does the source give for `O=C1CCCO1` [γ-butyrolactone] + CCCC[N+]1(C)CCCC1.N#CN=C=[N-] here?
**A.** 2.69 ± 0.06 mPa·s

**Q.** What about the mass density ([2]; 273.15 K) of the same compound?
**A.** 1149.15 ± 9.2 kg/m3

**Q.** What about the viscosity ([2]; 283.15 K) of the same compound?
**A.** 2.21 ± 0.05 mPa·s

**Q.** What about the mass density ([2]; 283.15 K) of the same compound?
**A.** 1139.31 ± 9.1 kg/m3

**Q.** What about the viscosity ([2]; 293.15 K) of the same compound?
**A.** 1.86 ± 0.04 mPa·s

**Q.** What about the mass density ([2]; 293.15 K) of the same compound?
**A.** 1129.49 ± 9 kg/m3

**Q.** And the viscosity ([2]; 298.15 K)?
**A.** 1.71 ± 0.04 mPa·s

**Q.** What about the mass density ([2]; 298.15 K) of the same compound?
**A.** 1124.59 ± 9 kg/m3

**Q.** What about the viscosity ([2]; 303.15 K) of the same compound?
**A.** 1.58 ± 0.03 mPa·s

**Q.** And the mass density ([2]; 303.15 K)?
**A.** 1119.68 ± 9 kg/m3

**Q.** What about the viscosity ([2]; 313.15 K) of the same compound?
**A.** 1.37 ± 0.03 mPa·s

**Q.** What about the mass density ([2]; 313.15 K) of the same compound?
**A.** 1109.87 ± 8.9 kg/m3

**Q.** And the viscosity ([2]; 323.15 K)?
**A.** 1.2 ± 0.03 mPa·s

**Q.** What about the mass density ([2]; 323.15 K) of the same compound?
**A.** 1100.05 ± 8.8 kg/m3
